Measured values as given in patent USRE50082E1, “(5,6-dihydro)pyrimido[4,5-e]indolizines” (NETHERLANDS TRANSLATIONAL RESEARCH CENTER B.V., priority 2014, dated 2024).

System: MOLT-4 cancer cell line
Test: Cell proliferation assay, MOLT-4 cancer cell line (ATPlite);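 also: luminescence read-out, percent growth versus compound-free DMSO wells as maximum growth, start-of-incubation signal separating growth from cell death, IC50 from logistic curve fit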
Format: cell-based
Details: Homo sapiens, MOLT-4; 72 hours incubation, ATPlite 1Step; read-out: IC50 MOLT-4 cell proliferation
Experimental: 5 μL of compound solution was added and the plates were incubated for an additional 72 hours after which 25 μL of ATPlite 1Step™ (PerkinElmer, Groningen, The Netherlands) solution was added to each well. Luminescence was recorded on an Envision multimode reader. The cell signal at the start of incubation was recorded separately in order to distinguish between cell population growth and cell death. In addition, maximum growth was determined by incubation of a duplicate without compound in the presence of 0.4% DMSO. Percentage growth was used as the main y-axis signal. IC50s were fitted by non-linear regression using IDBS XLfit™5 using a 4-parameter logistic curve, yielding a maximum signal, minimum signal, hill-parameter and IC50.

Row | Structure (SMILES) | IC50 [µM]
1 | CCc1cccc(CC)c1NC(=O)c1ccn2c1CCc1cnc(Nc3ccc(OC4CCN(C)CC4)cc3OC)nc1-2 [Example 43, N-(2,6-diethylphenyl)-2-[2-methoxy-4-[(1-methyl-4-piperidyl)oxy]anilino]-5,6-dihydropyrimido[4,5-e]indolizine-7-carboxamide] | < 0.05
2 | Cc1cc(N2CCNCC2)ccc1Nc1ncc2c(n1)-n1ccc(C(=O)Nc3c(C)cccc3C)c1CC2 [Example 58, N-(2,6-dimethylphenyl)-2-(2-methyl-4-piperazin-1-yl-anilino)-5,6-dihydropyrimido[4,5-e]indolizine-7-carboxamide] | < 0.05
3 | COCCn1nc(C)c(NC(=O)c2ccn3c2CCc2cnc(Nc4ccc(N5CCN(C)CC5)cc4OC)nc2-3)c1C [Example 26, N-[1-(2-methoxyethyl)-3,5-dimethyl-pyrazol-4-yl]-2-[2-methoxy-4-(4-methylpiperazin-1-yl)anilino]-5,6-dihydropyrimido[4,5-e]indolizine-7-carboxamide] | 0.05 to 0.15
4 | COCCn1nc(C)c(NC(=O)c2ccn3c2CCc2cnc(Nc4ccc(N5CCNCC5)cc4OC)nc2-3)c1C [Example 16, N-[1-(2-methoxyethyl)-3,5-dimethyl-pyrazol-4-yl]-2-(2-methoxy-4-piperazin-1-yl-anilino)-5,6-dihydropyrimido[4,5-e]indolizine-7-carboxamide] | 0.05 to 0.15
5 | CCc1nn(CCOC)c(CC)c1NC(=O)c1ccn2c1CCc1cnc(Nc3ccc(OC4CNC4)cc3OC)nc1-2 [Example 93, 2-[4-(Azetidin-3-yloxy)-2-methoxy-anilino]-N-[3,5-diethyl-1-(2-methoxyethyl)pyrazol-4-yl]-5,6-dihydropyrimido[4,5-e]indolizine-7-carboxamide] | < 0.05
6 | CCc1cccc(CC)c1NC(=O)c1ccn2c1CCc1cnc(Nc3ccc(OCCOC)cc3OC)nc1-2 [Example 136, N-(2,6-diethylphenyl)-2-[2-methoxy-4-(2-methoxyethoxy)anilino]-5,6-dihydropyrimido[4,5-e]indolizine-7-carboxamide] | 0.05 to 0.15
7 | CCc1cccc(CC)c1NC(=O)c1ccn2c1CCc1cnc(Nc3ccc(N4CCN(C)CC4)cc3OC)nc1-2 [Example 20, N-(2,6-diethylphenyl)-2-[2-methoxy-4-(4-methylpiperazin-1-yl)anilino]-5,6-dihydropyrimido[4,5-e]indolizine-7-carboxamide] | 0.05 to 0.15
8 | CCc1nn(CCOC)c(CC)c1NC(=O)c1ccn2c1CCc1cnc(Nc3ccc(OC4CCN(C)CC4)cc3C)nc1-2 [Example 13, N-[3,5-diethyl-1-(2-methoxyethyl)pyrazol-4-yl]-2-[2-methyl-4-[(1-methyl-4-piperidyl)oxy]anilino]-5,6-dihydropyrimido[4,5-e]indolizine-7-carboxamide] | < 0.05
9 | CCc1nn(C2COC2)c(CC)c1NC(=O)c1ccn2c1CCc1cnc(Nc3ccc(N4CCN(C)CC4)cc3OC)nc1-2 [Example 142, N-[3,5-diethyl-1-(oxetan-3-yl)pyrazol-4-yl]-2-[2-methoxy-4-(4-methylpiperazin-1-yl)anilino]-5,6-dihydropyrimido[4,5-e]indolizine-7-carboxamide] | 0.05 to 0.15
10 | CCc1cccc(CC)c1NC(=O)c1ccn2c1CCc1cnc(Nc3ccc(OCCN(C)C)cc3OC)nc1-2 [Example 52, N-(2,6-diethylphenyl)-2-[4-(2-dimethylaminoethyloxy)-2-methoxy-anilino]-5,6-dihydropyrimido[4,5-e]indolizine-7-carboxamide] | 0.05 to 0.15
11 | CCOc1cc(N2CCN(C)CC2)ccc1Nc1ncc2c(n1)-n1ccc(C(=O)Nc3c(CC)n[nH]c3CC)c1CC2 [Example 31, N-(3,5-diethyl-1H-pyrazol-4-yl)-2-[2-ethoxy-4-(4-methylpiperazin-1-yl)anilino]-5,6-dihydropyrimido[4,5-e]indolizine-7-carboxamide] | 0.05 to 0.15
12 | COCCOCCOCCn1nc(C)c(NC(=O)c2ccn3c2CCc2cnc(Nc4ccc(N(C)CCCN(C)C)cc4OC)nc2-3)c1C [Example 135, 2-[4-[3-(Dimethylamino)propyl-methyl-amino]-2-methoxy-anilino]-N-[1-[2-[2-(-2-methoxyethoxy)ethoxy]ethyl]-3,5-dimethyl-pyrazol-4-yl]-5,6-dihydropyrimido[4,5-e]indolizine-7-carboxamide] | < 0.05
13 | CCc1cccc(CC)c1NC(=O)c1ccn2c1CCc1cnc(Nc3ccc(N4CCNC(C)C4)cc3OC)nc1-2 (centres unmarked) [Example 116, N-(2,6-diethylphenyl)-2-[2-methoxy-4-(3-methylpiperazin-1-yl)anilino]-5,6-dihydropyrimido[4,5-e]indolizine-7-carboxamide] | < 0.05
14 | CCc1cccc(CC)c1NC(=O)c1ccn2c1ccc1cnc(Nc3ccc(N4CCN(C)CC4)cc3OC)nc12 [Example 71, N-(2,6-diethylphenyl)-2-[2-methoxy-4-(4-methylpiperazin-1-yl)anilino]pyrimido[4,5-e]indolizine-7-carboxamide] | < 0.05

Second part, the molecule after the results:

Row | IC50 [µM] | Structure (SMILES)
15 | 0.05 to 0.15 | Cc1cc(N2CCOCC2)ncc1Nc1ncc2c(n1)-n1ccc(C(=O)Nc3c(C)cccc3C)c1CC2 [Example 34, N-(2,6-dimethylphenyl)-2-[(4-methyl-6-morpholino-3-pyridyl)amino]-5,6-dihydropyrimido[4,5-e]indolizine-7-carboxamide]
16 | < 0.05 | CCc1cccc(C)c1NC(=O)c1ccn2c1CCc1cnc(Nc3ccc(N4CCN(C)CC4)cc3C)nc1-2 [Example 64, N-(2-ethyl-6-methyl-phenyl)-2-[2-methyl-4-(4-methylpiperazin-1-yl)anilino]-5,6-dihydropyrimido[4,5-e]indolizine-7-carboxamide]
17 | 0.05 to 0.15 | CCOc1cc(N2CCN(C)CC2)ccc1Nc1ncc2c(n1)-n1ccc(C(=O)Nc3c(C)cccc3CC)c1CC2 [Example 32, 2-[2-Ethoxy-4-(4-methylpiperazin-1-yl)anilino]-N-(2-ethyl-6-methyl-phenyl)-5,6-dihydropyrimido[4,5-e]indolizine-7-carboxamide]
18 | < 0.05 | COc1cc(N2CCNCC2)ccc1Nc1ncc2c(n1)-n1ccc(C(=O)Nc3c(C)cccc3Cl)c1CC2 [Example 75, N-(2-chloro-6-methyl-phenyl)-2-(2-methoxy-4-piperazin-1-yl-anilino)-5,6-dihydropyrimido[4,5-e]indolizine-7-carboxamide]
19 | < 0.05 | Cc1cccc(Cl)c1NC(=O)c1ccn2c1CCc1cnc(Nc3ccc(N4CCOCC4)nc3C)nc1-2 [Example 5, N-(2-chloro-6-methyl-phenyl)-2-[(2-methyl-6-morpholino-3-pyridyl)amino]-5,6-dihydropyrimido[4,5-e]indolizine-7-carboxamide]
20 | < 0.05 | COc1cc(OCCN(C)C)ccc1Nc1ncc2c(n1)-n1ccc(C(=O)Nc3c(C)cccc3Br)c1CC2 [Example 51, N-(2-bromo-6-methyl-phenyl)-2-[4-(2-dimethylaminoethyloxy)-2-methoxy-anilino]-5,6-dihydropyrimido[4,5-e]indolizine-7-carboxamide]
21 | < 0.05 | COc1cc(N2CCN(C(=O)C3CC3)CC2)ccc1Nc1ncc2c(n1)-n1ccc(C(=O)Nc3c(C)cccc3C)c1CC2 [Example 112, 2-[4-[4-(Cyclopropanecarbonyl)piperazin-1-yl]-2-methoxy-anilino]-N-(2,6-dimethylphenyl)-5,6-dihydropyrimido[4,5-e]indolizine-7-carboxamide]
22 | 0.05 to 0.15 | COc1cc(N2CCN(C)CC2)ccc1Nc1ncc2c(n1)-n1ccc(C(=O)Nc3c(C)nn(C)c3Cl)c1CC2 [Example 28, N-(5-chloro-1,3-dimethyl-pyrazol-4-yl)-2-[2-methoxy-4-(4-methylpiperazin-1-yl)anilino]-5,6-dihydropyrimido[4,5-e]indolizine-7-carboxamide]
23 | < 0.05 | COc1cc(C(=O)NC2CCN(C)CC2)ccc1Nc1ncc2c(n1)-n1ccc(C(=O)Nc3c(C)cccc3Cl)c1CC2 [Example 35, N-(2-chloro-6-methyl-phenyl)-2-[2-methoxy-4-[(1-methyl-4-piperidyl)carbamoyl]anilino]-5,6-dihydropyrimido[4,5-e]indolizine-7-carboxamide]
24 | < 0.05 | COc1cc(N2CCN(C)CC2)ccc1Nc1ncc2c(n1)-n1ccc(C(=O)Nc3c(Cl)cccc3Cl)c1CC2 [Example 61, N-(2,6-dichlorophenyl)-2-[2-methoxy-4-(4-methylpiperazin-1-yl)anilino]-5,6-dihydropyrimido[4,5-e]indolizine-7-carboxamide]
25 | < 0.05 | Cc1cccc(Br)c1NC(=O)c1ccn2c1CCc1cnc(Nc3ccc(N4CCOCC4)nc3C)nc1-2 [Example 70, N-(2-bromo-6-methyl-phenyl)-2-[(2-methyl-6-morpholino-3-pyridyl)amino]-5,6-dihydropyrimido[4,5-e]indolizine-7-carboxamide]
26 | 0.05 to 0.15 | COc1cc(N2CCN(C)CC2)ccc1Nc1ncc2c(n1)-n1ccc(C(=O)Nc3c(C)cccc3CO)c1CC2 [Example 23, N-[2-(hydroxymethyl)-6-methyl-phenyl]-2-[2-methoxy-4-(4-methylpiperazin-1-yl)anilino]-5,6-dihydropyrimido[4,5-e]indolizine-7-carboxamide]
27 | < 0.05 | CCCCS(=O)(=O)N1CCN(c2ccc(Nc3ncc4c(n3)-n3ccc(C(=O)Nc5c(C)cccc5C)c3CC4)c(OC)c2)CC1 [Example 113, 2-[4-(4-Butylsulfonylpiperazin-1-yl)-2-methoxy-anilino]-N-(2,6-dimethylphenyl)-5,6-dihydropyrimido[4,5-e]indolizine-7-carboxamide]
28 | < 0.05 | COc1cc(OC2CCN(C)CC2)ccc1Nc1ncc2c(n1)-n1ccc(C(=O)Nc3c(C)cccc3Br)c1CC2 [Example 42, N-(2-bromo-6-methyl-phenyl)-2-[2-methoxy-4-[(1-methyl-4-piperidyl)oxy]anilino]-5,6-dihydropyrimido[4,5-e]indolizine-7-carboxamide]
29 | < 0.05 | CCN1CCCN(C(=O)c2ccc(Nc3ncc4c(n3)-n3ccc(C(=O)Nc5c(C)cccc5C)c3CC4)c(OC)c2)CC1 [Example 124, N-(2,6-dimethylphenyl)-2-[4-(4-ethyl-1,4-diazepane-1-carbonyl)-2-methoxy-anilino]-5,6-dihydropyrimido[4,5-e]indolizine-7-carboxamide]
